The target of assay [1] is T1, sepiapterin reductase (SPR) (Homo sapiens, UniProt P35270).
T1 construct: endogenous in cells; host or cells: HaCaT, Jurkat, BeWo, SKNMC, CX-1
Put plainly: SPR enzyme activity in HaCaT cell lysates (BH2 formation from sepiapterin, HPLC). The format is biochemical. The note with it: BH2 formation from sepiapterin by HPLC, read-out: IC50, inhibition of SPR in HaCaT cell lysates. As for the experimental part:
(§1) The growth medium was then removed and the cells incubated with growth medium containing 100 μM sepiapterin. […] BH2 and BH4 were then analyzed on a Jasco high-performance liquid chromatography system (Easton, MD) fitted with a Maxsil-10 C18 column (250 × 4 mm; Phenomenex, Torrance, CA). […] Cell viability following drug treatments was greater than 95 %.
Fig. 4. Effects of auranofin on sepiapterin reductase (SPR) enzyme activity in HaCaT lysates. Lysates were assayed for SPR enzyme activity in control reaction mixes or reaction mixes containing increasing concentrations of auranofin (left panel). SPR activity was determined by decreases in BH2 formation from sepiapterin as measured by HPLC (right panel).

The subject of assay [2] is catecholamine and monoamine production in PC12 cells. The assay can be described thus: Catecholamine and monoamine production in PC12 cells (HPLC, electrochemical detection). Type of assay: cell-based, rat. The note with it: auranofin 0.04–2.5 μM. As for the experimental part:
Catecholamine and monoamine production in PC12 cells were assayed as previously described ([Yang et al., 2015]). Briefly, cells grown in 10-cm culture dishes were treated in the absence or presence of auranofin (0.04–2.5 μM) in 10 ml of growth medium without FBS. After 24 h, the cells were removed from the plates, washed with phosphate-buffered saline, and centrifuged (1500 g, 10 min). Cell pellets (~8 × 10^6 cells) were resuspended in 1 ml of 0.1 N perchloric acid containing 200 μM EDTA and 350 μM sodium metabisulfite and sonicated on ice. Ly-sates were centrifuged (20,000 g, 10 min) and clear supernatants filtered using 0.22-μm filters. Extracts were then analyzed for neurotransmitters and their metabolites using a Waters 2695 high-performance liquid chromatography system (Waters Corp., Milford, MA) fitted with a cation exchange column (MD-150 3.2 × […] column; ESA Biosciences, Inc., Chelmsford, MA) using an isocratic mobile phase (MD-TM mobile phase; ESA Biosciences Inc.) containing 2.2 mM NaCl pumped at constant flow rate of 0.5 ml/min. Compounds were quantified by electrochemical detection using a glassy carbon working electrode (2 mm in diameter) with an in situ silver reference electrode (flow cell, 2 mm GC WE, ISAAC; Waters Corp.) ([Yochum et al., 2014]).
Fig. 9. […] Cells were analyzed for BH2 and BH4 as described in the Materials and Methods. […]

The next assay concerns the target SPR (Homo sapiens, UniProt P35270). The assay can be described thus: BH2 and BH4 production from sepiapterin in intact HaCaT cells (HPLC). Type of assay: cell-based. The arrangement: endogenous in cells; host or cells: HaCaT, Jurkat, BeWo, SKNMC, CX-1. As to conditions: auranofin 2 h, then 100 μM sepiapterin 3 h, read-out: IC50, inhibition of SPR (BH2+BH4 formation) in intact HaCaT cells. As for the experimental part: as §1
Fig. 3. Effects of auranofin on BH2 and BH4 production in intact HaCaT cells treated with sepiapterin. HaCaT cells (~1 × 10^6 cells/well in 6 well culture plates) were incubated with control medium or medium containing increasing concentrations of auranofin for 2 h followed by 100 μM sepiapterin. After an additional 3 h, BH2 and BH4 were extracted from the cells and analyzed by HPLC with fluorescence detection. Left panel: Chromatograms showing BH2 and BH4 content of control cells and cells treated with Auranofin.

For another assay, the target named is T2, DHFR (Homo sapiens, UniProt P00374).
T2 sequence (P00374 1-187): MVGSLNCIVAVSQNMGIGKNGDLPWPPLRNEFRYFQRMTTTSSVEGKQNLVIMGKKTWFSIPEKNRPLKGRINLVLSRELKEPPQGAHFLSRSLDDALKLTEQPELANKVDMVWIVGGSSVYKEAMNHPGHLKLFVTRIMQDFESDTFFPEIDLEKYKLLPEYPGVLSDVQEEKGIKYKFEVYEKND
The assay can be described thus: Cellular DHFR activity: BH4 formation from BH2, human cell lines. Also noted: endogenous in cells; host or cells: HaCaT, Jurkat, BeWo, SKNMC, CX-1. The format is cell-based. As for the experimental part: Metabolic products of sepiapterin (BH2 and BH4) in intact cells and cell lysates were measured using HPLC as previously described ([Ferre and Naylor, 1988]) with some modifications ([Yang et al., 2013]; [Yang et al., 2015]). Briefly, cells in six-well culture dishes were grown until 60–70 % confluent (~1 × 10^6 cells/well). The growth medium was then removed and the cells incubated with growth medium containing 100 μM sepiapterin. After 3 h, cells were harvested, centrifuged (1500 g, 10 min), and pellets suspended in 200 μl of lysis buffer (50 mM Tris-HCl, pH 7.4, 137 mM NaCl, 0.5 % Nonidet P-40 (NP-40), 0.5 mM EDTA) for 20 min on ice. […] Thirty min later, 50 μl of 1 M H3PO4 was added to the supernatants and the precipitated proteins removed by centrifugation (15,000 g, 3 min). After standing for 10 min at room temperature, excess iodine was reduced by the addition of 25 μl of 57 mM ascorbic acid to the reaction mix. BH2 and BH4 were then analyzed on a Jasco high-performance liquid chromatography system (Easton, MD) fitted with a Maxsil-10 C18 column (250 × 4 mm; Phenomenex, Torrance, CA). Fluorescence was monitored using a Jasco FP-2020 spectrofluorometer with excitation and emission wavelengths set at 362 and 435 nm, respectively ([Yang et al., 2013]; [Yang et al., 2015]).
Fig. 8. […] DHFR enzyme activity in the cells was assayed by the metabolism of BH2 to BH4. Upper panels. HaCaT cells were treated with control medium or medium containing increasing concentrations of auranofin for 2 h followed by the addition of 200 μM BH2. After an additional 3 h, cells were rinsed with PBS and BH2 and BH4 analyzed by HPLC as described in the Materials and Methods. Lower panels. […] Cells were treated with the drug for increasing periods of time (0–2 h) followed by 200 μM BH2. After an additional 3 h, cells were rinsed with PBS and analyzed for BH2 and BH4 content.

“Also recorded” adds a separate entry of the source. Where two headings read alike, the source gives them in different places.

One may read the IC50 as the concentration needed to halve the response being measured.

T1 sequence (P35270 whole entry): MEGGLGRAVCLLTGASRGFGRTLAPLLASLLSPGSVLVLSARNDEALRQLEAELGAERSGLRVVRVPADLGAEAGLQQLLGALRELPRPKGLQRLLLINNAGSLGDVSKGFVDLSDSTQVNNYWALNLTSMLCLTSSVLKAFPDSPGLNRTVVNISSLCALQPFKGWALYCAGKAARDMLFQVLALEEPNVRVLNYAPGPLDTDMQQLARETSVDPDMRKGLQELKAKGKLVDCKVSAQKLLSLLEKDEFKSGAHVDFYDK
SPR, sequence (P35270 whole entry): as above

For the compound `CC[PH](CC)(CC)[Au][S][C@@H]1O[C@H](COC(C)=O)[C@@H](OC(C)=O)[C@H](OC(C)=O)[C@H]1OC(C)=O` [auranofin, 2,3,4,6-tetra-O-acetyl-1-thio-β-D-glucopyranosato-S-triethyl phosphine gold], the IC50 in assay [1] turned out to be 1.8 µM; on SPR, 12.8 µM; at DHFR (BeWo (human choriocarcinoma), BH4 formation from BH2, read-out: DHFR IC50, BeWo cells) it was 3.9 ± 0.15 µM; on DHFR (CX-1 (human colon adenocarcinoma), BH4 formation from BH2, read-out: DHFR IC50, CX-1 cells), 7.3 ± 0.1 µM; on DHFR (HaCaT (human keratinocytes), auranofin 2 h, then 200 μM BH2 3 h, read-out: DHFR IC50, HaCaT cells), 6.3 ± 0.75 µM; at DHFR (Jurkat (human leukemia), BH4 formation from BH2, read-out: DHFR IC50, Jurkat cells), 5.4 ± 0.07 µM. Besides, on DHFR (SKNMC (human neuroblastoma), BH4 formation from BH2, read-out: DHFR IC50, SKNMC cells), the IC50 was determined as 15.2 ± 0.53 µM. Moreover, the “production of monoamines (serotonin, dopamine) and their metabolites (5HIAA, DOPAC, HVA)” value in assay [2] is reported as “concentration-dependent inhibition; also recorded: significantly reduced”. Besides, on DHFR (HaCaT cells, 20 μM auranofin), the “time of pretreatment to maximal inhibition of cellular DHFR” value amounted to 2 h.

The record behind these values is PMC13249053, “Mechanism of auranofin toxicity: Inhibition of tetrahydrobiopterin metabolism” (Toxicology and applied pharmacology, 2025).
